In assay [1] the test system is Escherichia coli. Description: Inhibition of Escherichia coli MurD assessed as residual activity at 250 uM.
In assay [2] the test system is Escherichia coli. Kind of assay: Inhibition of Escherichia coli MurD assessed as residual activity at 500 uM.
A short description of assay [3]: Inhibition of Escherichia coli MurD assessed as residual activity.
In assay [4] the test system is Escherichia coli. Kind of assay: Inhibition of Escherichia coli MurF assessed as residual activity at 250 uM.
Assay [5] relates to Escherichia coli. Description: Inhibition of Escherichia coli MurE assessed as residual activity at 250 uM.
Assay [6] has as its system Escherichia coli. Kind of assay: Inhibition of Escherichia coli MurC assessed as residual activity at 250 uM.

Regarding `O=C(O)CC[C@H](NC(=O)c1ccc(CNc2ccc(/C=C3\SC(=S)NC3=O)cc2)cc1)C(=O)O`, the Activity in assay [1] amounted to 68%.
Turning to `COC(=O)CC[C@H](NC(=O)c1ccc(NCc2cnc3[nH]c(N)nc(=O)c3n2)cc1)C(=O)OC`, the Activity in assay [2] was determined as 96%.
Take `Nc1nc(N)c2cc(NCc3ccc(C(=O)N[C@@H](CCC(=O)O)C(=O)O)cc3)ccc2n1`: the Activity in assay [2] was found to be 80%.
Consider `O=C(O)CC[C@@H](NC(=O)c1ccc(CNc2cccc(/C=C3\SC(=O)NC3=O)c2)cc1)C(=O)O`, for which the Activity in assay [1] is 85%.
On to `Nc1nc(N)c2cc(NCc3ccc(C(=O)N[C@H](CCC(=O)O)C(=O)O)cc3)ccc2n1`, for which, in assay [2], the Activity was 82%.
The term IC50 denotes the concentration that gives 50% inhibition. With `O=C(O)CC[C@@H](NC(=O)c1ccc(CNc2cccc(/C=C3\SC(=S)NC3=O)c2)cc1)C(=O)O`, the IC50 in assay [3] was 174 µM. Further, the Activity in assay [4] stood at 79%; in assay [5], 96%; in assay [6] it was 78%.
On to `COC(=O)CC[C@@H](NC(=O)c1ccc(CNc2ccc3[nH]c(=O)[nH]c(=O)c3c2)cc1)C(=O)OC`, for which the Activity in assay [2] is 91%.
For `COC(=O)CC[C@@H](NC(=O)c1ccc(CNc2ccc3nc(N)nc(N)c3c2)cc1)C(=O)OC`, the Activity in assay [2] is 87%.
For the molecule `O=C(O)CC[C@H](NC(=O)c1ccc(CNc2cccc(/C=C3\SC(=S)NC3=O)c2)cc1)C(=O)O`, the IC50 in assay [3] was 206 µM. For the same molecule, the Activity in assay [4] turned out to be 77%; in assay [5], 91%; in assay [6], 76%.
Consider `O=C(O)CC[C@@H](NC(=O)c1ccc(CNc2ccc3[nH]c(=O)[nH]c(=O)c3c2)cc1)C(=O)O`, for which the Activity in assay [2] is 77%.
Regarding `Nc1nc(=O)c2nc(CNc3ccc(C(=O)N[C@@H](CCC(=O)O)C(=O)O)cc3)cnc2[nH]1`, the Activity in assay [2] stood at 95%.
In the case of `COC(=O)CC[C@H](NC(=O)c1ccc(CNc2ccc3nc(N)nc(N)c3c2)cc1)C(=O)OC`, the Activity in assay [2] stood at 81%.
For the molecule `O=C(O)CC[C@@H](NC(=O)c1ccc(CNc2ccc(/C=C3\SC(=S)NC3=O)cc2)cc1)C(=O)O`, the Activity in assay [1] is 74%.
With `O=C(O)CC[C@H](NC(=O)c1ccc(CNc2ccc3[nH]c(=O)[nH]c(=O)c3c2)cc1)C(=O)O`, the Activity in assay [2] came out at 81%.
In the case of `O=C(O)CC[C@H](NC(=O)c1ccc(CNc2cccc(/C=C3\SC(=O)NC3=O)c2)cc1)C(=O)O`, in assay [1], the Activity came out at 87%.
`O=C(O)CC[C@@H](NC(=O)c1ccc(CNc2ccc(/C=C3\SC(=O)NC3=O)cc2)cc1)C(=O)O`: the Activity in assay [1] came to 70%.
As to `COC(=O)CC[C@H](NC(=O)c1ccc(CNc2ccc3[nH]c(=O)[nH]c(=O)c3c2)cc1)C(=O)OC`, the Activity in assay [2] was 92%.
Consider `O=C(O)CC[C@H](NC(=O)c1ccc(CNc2ccc(/C=C3\SC(=O)NC3=O)cc2)cc1)C(=O)O`, for which, in assay [1], the Activity was 88%.

The record behind these values is ChEMBL document CHEMBL1139265, “Synthesis and biological evaluation of new glutamic acid-based inhibitors of MurD ligase” (Bioorg Med Chem Lett, 2009).
